Publication PMC4216204 (Journal of Medicinal Chemistry, 2014)

Assays:
[1] = test system: xenograft tumor; conditions: mouse model of human cancer; cited from earlier work
[2] = test system: AML progenitors; conditions: ref 23 (Tamburini et al.); cited from earlier work
[3] = test system: CRL-2351 breast cancer cells; assay: Sulforhodamine B; assay type: cell-based; conditions: Homo sapiens, 120 h, read-out: SRB assay IC50 CRL-2351

IC50 [3] [µM]	Compound	inhibition of xenograft tumor growth [1]	clonogenic growth of AML progenitors [2]
–	O=C(O)C(Cc1ccccc1[N+](=O)[O-])=NNc1nc(-c2ccc(Cl)c(Cl)c2)cs1 [compound 1, (2-(2-(4-(3,4-dichlorophenyl)thiazol-2-yl)hydrazono)-3-(2-nitrophenyl)propanoic acid)]	effectively inhibits xenograft tumor growth	dramatically reduces the clonogenic growth of AML progenitors
> 20	COc1cc2c(cc1OC)-c1nc(N/N=C(\Cc3ccccc3[N+](=O)[O-])C(=O)O)sc1CO2 [(E)-46a, 2-(2-(7,8-Dimethoxy-4H-chromeno[4,3-d]thiazol-2-yl)hydrazono)-3-(2-nitrophenyl)propanoic Acid]	–	–
> 20	COc1cc2c(cc1OC)-c1nc(N/N=C(/Cc3ccccc3[N+](=O)[O-])C(=O)O)sc1CO2 [(Z)-46a, 2-(2-(7,8-Dimethoxy-4H-chromeno[4,3-d]thiazol-2-yl)hydrazono)-3-(2-nitrophenyl)propanoic Acid]	–	–
> 20	COc1cc2c(cc1OC)-c1nc(N/N=C(\Cc3ccccc3[N+](=O)[O-])C(=O)O)sc1CC2 [(E)-46c, 2-(2-(7,8-Dimethoxy-4,5-dihydronaphtho[1,2-d]thiazol-2-yl)hydrazono)-3-(2-nitrophenyl)propanoic Acid]	–	–
> 20	COc1ccc2c(c1OC)OCc1sc(N/N=C(/Cc3ccccc3[N+](=O)[O-])C(=O)O)nc1-2 [(Z)-46b, 2-(2-(6,7-Dimethoxy-4H-chromeno[4,3-d]thiazol-2-yl)hydrazono)-3-(2-nitrophenyl)propanoic Acid]	–	–
> 20	COc1ccc2c(c1OC)OCc1sc(N/N=C(\Cc3ccccc3[N+](=O)[O-])C(=O)O)nc1-2 [(E)-46b, 2-(2-(6,7-Dimethoxy-4H-chromeno[4,3-d]thiazol-2-yl)hydrazono)-3-(2-nitrophenyl)propanoic Acid]	–	–
> 20	COc1cc2c(cc1OC)-c1nc(N/N=C(/Cc3ccccc3[N+](=O)[O-])C(=O)O)sc1CC2 [(Z)-46c, 2-(2-(7,8-Dimethoxy-4,5-dihydronaphtho[1,2-d]thiazol-2-yl)hydrazono)-3-(2-nitrophenyl)propanoic Acid]	–	–
